From patent EP1589016A1, “Thio-substituted tricyclic and bicyclic aromatic methanesulfinyl derivatives” (CEPHALON FRANCE, priority 2004, dated 2005) come the findings set out here.

For the experiment, the system named is Rats. The experiment in a line: Evaluation of Wake Promoting Activity in Rats (EEG/EMG sleep/wake scoring). In kind it is in vivo, Wistar rats. To be noted: i.p. route, 100 mg/kg; for Mean AUC 0-3h, Test compound: n = 4 rats per test compound, group mean, compared with vehicle group (8 rats); for wakefulness compared to the vehicle-treated control groups: rats, p< 0.05 versus vehicle. Here is the method: The methodology utilized for evaluating wake promoting activity of test compounds is based on that described by Edgar and Seidel, Journal of Pharmacology and Experimental Therapeutics, 283:757-769, 1997, and incorporated herein in its entirety by reference.
Animal Surgery. Adult, male Wistar rats (275-320g from Charles River Laboratories, Wilmington, MA) were anesthetized (Nembutal, 45 mg/kg, ip.) and surgically prepared with implants for recording of chronic EEG (encephalographic) and EMG (electromyographic) recording. The EEG implants were made from commercially available components (Plastics One, Roanoke, VA). EEG signals were recorded from stainless steel screw electrodes: 2 frontal (+3.0 mm AP from bregma, ±2.0 mm ML), and 2 occipital (-4.0 mm AP from bregma, ±2.0 mm ML). Two Teflon-coated stainless steel wires were positioned under the nuchal trapezoid muscles for EMG recording. All electrode leads were inserted into a connector pedestal and the pedestal affixed to the skull by application dental acrylic. Antibiotic was administered post surgically and antibiotic cream was applied to the wound edges to prevent infection. At least one week elapsed between surgery and recording.
Recording environment. Postsurgically, rats were housed in pairs in an isolated room. Food and water were available ad libitum, ambient temperature was 21°C, and humidity was 55%. At least 24 hrs prior to recording, they were placed in Nalgene containers (31 x 31 x 31 cm) with a wire-grid top, and entry to the room was prohibited during the day of recording except for dosing. The containers were placed on a rack with two shelves, 4 containers per shelf. Fluorescent overhead room lights were set to a 24 hr. light/dark cycle (on at 7 AM, off at 7 PM). Light levels inside the containers were 38 and 25 lux for the top and bottom shelves respectively. Background white-noise (68db inside the containers) was present in the room to mask ambient sounds.
Data acquisition. EEG and EMG signals were led via cables to a commutator (Plastics One) and then to pre-amplifiers (model 1700, A-M Systems, Carlsborg, WA). EEG and EMG signals were amplified (10K and 1K respectively) and bandpass filtered between 0.3 and 500 Hz for EEG and between 10 and 500 Hz for EMG. These signals were digitized at 128 samples per second using ICELUS sleep research software (M. Opp, U. Texas; see Opp, Physiology and Behavior 63:67-74, 1998, and Imeri, Mancia, and Opp, Neuroscience 92:745-749, 1999, incorporated by reference herein in their entirety) running under Labview 5.1 software and data acquisition hardware (PCI-MIO-16E-4; National Instruments, Austin, TX). On the day of dosing, data was recorded for 6 to 10 hours beginning at 11 AM.
Drug administration and study design. Compounds were evaluated on groups of from 4 to 8 rats carried out over one or two separate test sessions. Each animal was tested with a different compound or vehicle for up to 10 weeks with at least 7 days between successive tests. A vehicle group was included in all experiments, and each animal received vehicle every 4th test. Test compounds were suspended in sterile 0.25% methylcellulose (pH=6.2; Upjohn Co., Kalamazoo, MI) at […]. Although compounds can be administered at dosages greater than 100 mg/kg and are expected to be active under the selection criteria of data analysis, unless otherwise noted, compounds were administered at a single dose of 100 mg/kg. Dosing was carried out at noon, while the rats were predominantly asleep. Each rat was lifted out of its container, given an intraperitoneal injection in a volume of 5 mL/kg, and replaced. Dosing required approximately 30 sec per rat.
Sleep / wake scoring. Sleep and wake activity were determined manually using ICELUS software. […]

As to `CC(C)(C)OC(=O)N1CCN(C(=O)CSCc2ccc3oc4ccc(F)cc4c3c2)CC1` [Example 26, 4-[2-(8-fluorodibenzofuran-2-yl-methylsulfanyl)acetyl]-piperazine-1-carboxylic acid tret-butyl ester], the “Mean AUC 0-3h, Test compound” value is reported as 132.0 % of waiking time x hr and the “wakefulness compared to the vehicle-treated control groups” value is “significantly greated wakefulness”.

Turning to `O=C(C[S+]([O-])Cc1cccc2c1oc1ccccc12)N1CCNCC1` (stereo not drawn) [Example 99], the “Mean AUC 0-3h, Test compound” value is 129.1 % of waiking time x hr and the “wakefulness compared to the vehicle-treated control groups” value is “significantly greated wakefulness”.

As to `O=C(C[S+]([O-])Cc1cccc2c1-c1ccccc1C2)N1CCNCC1` (stereo not drawn) [Example 130], the “Mean AUC 0-3h, Test compound” value is on record as 149.2 % of waiking time x hr and the “wakefulness compared to the vehicle-treated control groups” value is reported as “significantly greated wakefulness”.
